Patent publication US11732240B2, “Direct conversion method of somatic cell into Hepatic stem cell, hepatic cell, or cholangiocyte” (UNIST(ULSAN NATIONAL INSTITUTE OF SCIENCE AND TECHNOLOGY), priority 2016, dated 2023)

Legend:
CYP related genes = assay: qRT-PCR of CYP related genes in induced hepatocytes after drug treatment; format: cell-based, mouse; settings: iHep; 25 mM 3-Mc, 1 uM Dex or 50 mM ethanol; 72 hrs; versus DMSO control
Description: Total RNA was extracted and cDNA was synthesized in the same method as Example 1. qRT-PCR was performed using synthesized cDNA. mRNA expression of specific genes was confirmed using SYBR Green I Master (Roche, 04887352001) and primers in LightCycler® 480 equipment. The average value was calculated for three analyzes and normalized using Gapdh (5′-[…]-3′ (SEQ ID NO: 94) and 5′-[…]-3′ (SEQ ID NO: 95)). The expression level of mRNA was compared using comparative Ct method. Primer sequences used in qRT-PCR were shown below (sequences below were represented in the 5′ to 3′ direction).
The CYP family members were known to be regulated by aryl hydrocarbon receptor (AhR), constitutive androstane receptor (CAR), pregnane X receptor (PXR), and nuclear receptor which were abundantly found in liver tissue. In order to confirm whether hepatocytes induce CYP when a stimulus was given to such receptors, chemical compounds such as 3-methylcholanthrene (3Mc) which acts on aryl hydrocarbon receptors (Cyp1 family members) and glucocorticoid (Dex, dexamethasone) which acts on glucocorticoid receptors (glucocorticoid receptor regulating CAR and PXR is upstream of Cyp2/3 family members) were treated to receptors.
Specifically, cells were cultured with 60% confluency in HEP medium in which dexamethasone was not added. […]

hepatocytes = settings: 50 mM EtOH for 48 hrs

| accumulation of fats and droplets in cytoplasm of hepatocytes (hepatocytes) | SMILES | expression of CYP family genes (mRNA) (CYP related genes) |
| --- | --- | --- |
|  | Cc1ccc2cc3c(ccc4ccccc43)c3c2c1CC3 [3-methylcholanthrene] | induced |
| accumulation of fats | CCO [ethanol] |  |
